Measurements taken from ChEMBL document CHEMBL1201862, “PubChem BioAssay data set” (2004).
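Exposure lasted 48 hours, with cells grown in 96-well plates and compounds tested at five concentrations. Here, GI50 denotes the concentration required for 50% inhibition of growth.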 Activity calls are given as the source filed them. No stated cut-off is given here; in the data, active = GI50 up to about 1.1 µM and inactive = higher.

Tests used:
Experiment in all cases: NCI anticancer screen, dose series, 48 h
UACC-257 = tested on: UACC-257
SK-MEL-5 = tested on: SK-MEL-5
SF-268 = tested on: SF-268
MCF7 = tested on: MCF7
NCI-H23 = tested on: NCI-H23
HT-29 = tested on: HT-29
K562 = tested on: K562
HCC 2998 = tested on: HCC 2998
U-251 = tested on: U-251
COLO 205 = tested on: COLO 205
CCRF-CEM = tested on: CCRF-CEM
SK-MEL-28 = tested on: SK-MEL-28
786-0 = tested on: 786-0
SK-MEL-2 = tested on: SK-MEL-2
SW-620 = tested on: SW-620
OVCAR-3 = tested on: OVCAR-3
BT-549 = tested on: BT-549
KM12 = tested on: KM12
EKVX = tested on: EKVX
SR = tested on: SR

Measured: GI50

COc1ccc(OC)c2c1C(=O)C(O)=C(Cl)C2=O
inactive: UACC-257 > 100 µM | SK-MEL-5 > 100 µM | SF-268 > 100 µM | MCF7 > 100 µM | NCI-H23 > 100 µM | HT-29 > 100 µM | K562 > 100 µM | HCC 2998 > 100 µM | U-251 > 100 µM | COLO 205 > 100 µM | CCRF-CEM > 100 µM | SK-MEL-28 > 100 µM | 786-0 > 100 µM | SK-MEL-2 > 100 µM | SW-620 > 100 µM | OVCAR-3 > 100 µM | BT-549 > 100 µM | KM12 > 100 µM

CCc1c(Cl)c(C)cc(O)c1Cl
inactive: UACC-257 29.6 µM | SK-MEL-5 15.3 µM | SF-268 53.8 µM | MCF7 32 µM | NCI-H23 34.8 µM | HT-29 27.5 µM | K562 33.7 µM | HCC 2998 1.71 µM | U-251 15.6 µM | COLO 205 43.7 µM | CCRF-CEM 25.7 µM | SK-MEL-28 58.3 µM | 786-0 38.2 µM | SK-MEL-2 20.8 µM | EKVX 36.2 µM | SW-620 20.6 µM | OVCAR-3 52 µM | BT-549 16.6 µM | KM12 22.6 µM

Cc1ccc(S(=O)(=O)N2CCSCCN(S(=O)(=O)c3ccc(C)cc3)CCN(S(=O)(=O)c3ccc(C)cc3)CC2)cc1
inactive: SK-MEL-5 > 100 µM | SF-268 16.7 µM | MCF7 59.7 µM | NCI-H23 79.4 µM | HT-29 > 100 µM | K562 > 100 µM | HCC 2998 > 100 µM | U-251 20 µM | COLO 205 > 100 µM | CCRF-CEM > 100 µM | SK-MEL-28 > 100 µM | 786-0 16.7 µM | SK-MEL-2 25.9 µM | EKVX 47.5 µM | SW-620 > 100 µM | OVCAR-3 > 100 µM | BT-549 27.8 µM

CN(C)CCCNC(=O)CCNC(=O)c1cc(NC(=O)c2cc(NC(=O)c3cc(NC(=O)c4nccn4C)cn3C)cn2C)cn1C
inactive: UACC-257 > 100 µM | SK-MEL-5 > 100 µM | SF-268 44.8 µM | MCF7 > 100 µM | NCI-H23 > 100 µM | HT-29 > 100 µM | K562 > 100 µM | HCC 2998 > 100 µM | U-251 13.4 µM | COLO 205 20 µM | CCRF-CEM > 46.8 µM | SK-MEL-28 > 100 µM | 786-0 > 100 µM | SK-MEL-2 > 100 µM | EKVX > 100 µM | SW-620 > 100 µM | OVCAR-3 > 78.2 µM | BT-549 > 100 µM | KM12 > 100 µM

Cc1ccc(S(=O)(=O)C2=Cc3ccccc3C2(O)c2ccccc2)cc1 (centres undefined)
inactive: UACC-257 > 10 µM | SK-MEL-5 16.6 µM | SF-268 27.2 µM | NCI-H23 37.2 µM | HT-29 19.7 µM | K562 25.1 µM | HCC 2998 10.4 µM | U-251 26.7 µM | COLO 205 24.5 µM | CCRF-CEM 15.7 µM | SK-MEL-28 16.3 µM | 786-0 > 10 µM | SR 22.2 µM | SK-MEL-2 15.4 µM | EKVX 24.9 µM | SW-620 29.8 µM | BT-549 24 µM | KM12 21.4 µM

OC(CCN1CCN(CCOC(c2ccccc2)c2ccccc2)CC1)c1ccccc1 (centres undefined)
inactive: UACC-257 17.9 µM | SK-MEL-5 15.3 µM | SF-268 22.8 µM | MCF7 22.4 µM | NCI-H23 24.7 µM | HT-29 15.9 µM | HCC 2998 14.8 µM | U-251 16.3 µM | COLO 205 14.5 µM | CCRF-CEM 27.7 µM | SK-MEL-28 17.9 µM | 786-0 18 µM | SK-MEL-2 15.8 µM | EKVX 19.7 µM | SW-620 31.1 µM | OVCAR-3 25.6 µM | BT-549 23.8 µM | KM12 20.9 µM

OC12COc3ccccc3C1Oc1ccccc1C2 (centres undefined)
inactive: UACC-257 > 100 µM | SK-MEL-5 > 100 µM | SF-268 > 100 µM | MCF7 > 100 µM | NCI-H23 > 100 µM | HT-29 > 100 µM | K562 > 100 µM | HCC 2998 > 100 µM | U-251 > 100 µM | COLO 205 > 100 µM | CCRF-CEM > 100 µM | 786-0 > 100 µM | SK-MEL-2 > 100 µM | EKVX > 100 µM | SW-620 > 100 µM | OVCAR-3 > 100 µM | BT-549 > 100 µM | KM12 > 100 µM

COc1ccc(CCN(C)C(=O)CC(C#N)(c2ccccc2)c2ccc(OC)c(OC)c2)cc1OC (centres undefined)
inactive: UACC-257 > 100 µM | SK-MEL-5 98.4 µM | SF-268 > 100 µM | MCF7 > 100 µM | NCI-H23 > 100 µM | HT-29 > 100 µM | K562 > 42.2 µM | U-251 > 100 µM | COLO 205 > 100 µM | CCRF-CEM > 100 µM | SK-MEL-28 > 100 µM | 786-0 > 100 µM | SK-MEL-2 > 100 µM | EKVX > 100 µM | SW-620 > 100 µM | OVCAR-3 > 100 µM | BT-549 > 100 µM | KM12 > 100 µM

CC1=C[C@@H]2Cc3nc4cc(Cl)ccc4c(N)c3[C@H](C1)C2
inactive: UACC-257 2.02 µM | SK-MEL-5 2.84 µM | SF-268 12.5 µM | MCF7 10 µM | NCI-H23 8.22 µM | HT-29 2.68 µM | K562 2.71 µM | U-251 13.4 µM | COLO 205 1.48 µM | CCRF-CEM 12.2 µM | SK-MEL-28 12.3 µM | 786-0 6.03 µM | SK-MEL-2 14.7 µM | EKVX 3.32 µM | SW-620 11 µM | OVCAR-3 10.4 µM | BT-549 16.2 µM | KM12 7.6 µM

COC(=O)[C@H](Cc1ccccc1)NC(=O)N(CCC#N)CCCCN(CCC#N)C(=O)N[C@@H](Cc1ccccc1)C(=O)OC
inactive: UACC-257 > 100 µM | SK-MEL-5 > 100 µM | SF-268 > 100 µM | MCF7 > 100 µM | NCI-H23 > 100 µM | K562 > 100 µM | HCC 2998 > 100 µM | U-251 > 100 µM | COLO 205 > 100 µM | SK-MEL-28 > 100 µM | 786-0 > 100 µM | SK-MEL-2 > 100 µM | EKVX > 100 µM | SW-620 > 100 µM | OVCAR-3 > 100 µM | BT-549 > 100 µM | KM12 > 100 µM

CCOC(=O)N(C)C(=C(F)F)C(F)(F)F
inactive: UACC-257 31.5 µM | SK-MEL-5 15.7 µM | SF-268 25.2 µM | MCF7 36.6 µM | NCI-H23 20.5 µM | HT-29 27 µM | K562 22.1 µM | HCC 2998 20.6 µM | U-251 30.4 µM | COLO 205 21 µM | CCRF-CEM 19.8 µM | SK-MEL-28 20 µM | 786-0 21.7 µM | SR 3.95 µM | SK-MEL-2 16 µM | EKVX 27.6 µM | SW-620 21.2 µM | OVCAR-3 36 µM | KM12 35 µM
